Values quoted from earlier work in patent publication US20180153879A1, “Solid Dispersion Comprising μ-Opioid Antagonists” (Sandoz AG, priority 2016, published 2018).

Conditions: free base form, exposure to air

## C=CCN1CC[C@]23c4c5ccc(O)c4O[C@H]2[C@@H](OCCOCCOCCOCCOCCOCCOCCOC)CC[C@@]3(O)[C@H]1C5 [naloxegol, (5α,6α)-17-allyl-6-(2,5,8,11,14,17,20-heptaoxadocosan-22-yloxy)-4,5-epoxymorphinan-3,14-diol]
  oxidative stability: can undergo oxidative degradation upon exposure to air
